Laboratory results as given in PubChem BioAssay AID1963875 (Molecular Pharmacology Branch, DTP, NCI, 2024).

System: KRAS-mutant PDC complex spheroid viability
Assay: Anticancer human tumor 186277-243-T-J2-PDC patient-derived colon adenocarcinoma cell line growth inhibition [KRAS2]
Conditions: for IC50: curve of first compound; for viability, T/C: stronger effect = lower value
Method in brief: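 Combination screen of spheroid viability in tumor-cell co-cultures with endothelial (HUVEC) and mesenchymal stem cell stroma. Each agent was tested in half-log dilutions, topping at clinical Cmax or at 10 microM without a known Cmax.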

[1] = second compound 0.1 µM, first compound 0.01 µM
[2] = second compound 0.1 µM, first compound 0.0316 µM
[3] = second compound 0.1 µM, first compound 0.1 µM
[4] = second compound 0.1 µM, first compound 0.316 µM
[5] = second compound 0.1 µM, first compound 1 µM
[6] = second compound 0.1 µM, first compound 3.16 µM
[7] = second compound 0.316 µM, first compound 0.01 µM
[8] = second compound 0.316 µM, first compound 0.0316 µM
[9] = second compound 0.316 µM, first compound 0.1 µM
[10] = second compound 0.316 µM, first compound 0.316 µM
[11] = second compound 0.316 µM, first compound 1 µM
[12] = second compound 0.316 µM, first compound 3.16 µM
[13] = second compound 1 µM, first compound 0.01 µM
[14] = second compound 1 µM, first compound 0.0316 µM
[15] = second compound 1 µM, first compound 0.1 µM
[16] = second compound 1 µM, first compound 0.316 µM
[17] = second compound 1 µM, first compound 1 µM
[18] = second compound 1 µM, first compound 3.16 µM
[19] = second compound 3.16 µM, first compound 0.01 µM
[20] = second compound 3.16 µM, first compound 0.0316 µM
[21] = second compound 3.16 µM, first compound 0.1 µM
[22] = second compound 3.16 µM, first compound 0.316 µM
[23] = second compound 3.16 µM, first compound 1 µM
[24] = second compound 3.16 µM, first compound 3.16 µM
[25] = second compound 10 µM, first compound 0.01 µM
[26] = second compound 10 µM, first compound 0.0316 µM
[27] = second compound 10 µM, first compound 0.1 µM
[28] = second compound 10 µM, first compound 0.316 µM
[29] = second compound 10 µM, first compound 1 µM
[30] = second compound 10 µM, first compound 3.16 µM
[31] = second compound 0.1 µM, first compound 10 µM
[32] = second compound 0.316 µM, first compound 10 µM
[33] = second compound 1 µM, first compound 10 µM
[34] = second compound 3.16 µM, first compound 10 µM
[35] = second compound 10 µM, first compound 10 µM
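Wherever viability, T/C is given: viability read after seven days of compound exposure; 100% = DMSO vehicle-treated spheroids so lower means less viable.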

Compound | IC50 (second compound 0.1 µM) [nM] | IC50 (second compound 0.316 µM) [nM] | IC50 (second compound 1 µM) [nM] | IC50 (second compound 3.16 µM) [nM] | IC50 (second compound 10 µM) [nM] | viability, T/C [2] [%] | viability, T/C [3] [%] | viability, T/C [4] [%] | viability, T/C [5] [%] | viability, T/C [8] [%] | viability, T/C [9] [%] | viability, T/C [10] [%] | viability, T/C [11] [%] | viability, T/C [14] [%] | viability, T/C [15] [%] | viability, T/C [16] [%] | viability, T/C [17] [%] | viability, T/C [20] [%] | viability, T/C [21] [%] | viability, T/C [22] [%] | further results
CC1COCCN1c1cc(-c2ccnn2C)c2ccnc(-c3ccn[nH]3)c2n1 (stereo not given) + COc1cc2nc(C)nc(NC(C)c3cc(N)cc(C(F)(F)F)c3)c2cc1OC1CCOC1 | < 10 | 21.2 | 19.9 | 19.9 | 18.9 | 4.38 | 3.41 | 2.71 | 2.04 | 24.3 | 3.67 | 2.88 | 2.23 | 17.2 | 4.4 | 3.51 | 3.19 | 16.4 | 3.55 | 2.87 | viability, T/C [1]: 5.03%; viability, T/C [6]: 1.41%; viability, T/C [7]: 98.5%; viability, T/C [12]: 3.71%; viability, T/C [13]: 98.9%; viability, T/C [18]: 3.55%; viability, T/C [19]: 99.5%; viability, T/C [23]: 1.93%; viability, T/C [24]: 3.19%; viability, T/C [25]: 103%; viability, T/C [26]: 7.22%; viability, T/C [27]: 3.43%; viability, T/C [28]: 2.48%; viability, T/C [29]: 2.25%; viability, T/C [30]: 2.72%
CC1OCC2(CCN(c3cnc(Sc4ccnc(N)c4Cl)c(N)n3)CC2)C1N (stereo not given) + COc1cc2nc(C)nc(NC(C)c3cc(N)cc(C(F)(F)F)c3)c2cc1OC1CCOC1 | > 10000 | > 10000 | > 10000 | > 10000 | 1520 | 103 | 96.1 | 104 | 108 | 106 | 104 | 93.9 | 100 | 99.9 | 101 | 103 | 104 | 98.9 | 87.6 | 96.7 | viability, T/C [6]: 109%; viability, T/C [31]: 112%; viability, T/C [12]: 115%; viability, T/C [32]: 98.1%; viability, T/C [18]: 114%; viability, T/C [33]: 85.4%; viability, T/C [23]: 114%; viability, T/C [24]: 111%; viability, T/C [34]: 78.8%; viability, T/C [26]: 93.6%; viability, T/C [27]: 96.7%; viability, T/C [28]: 93.5%; viability, T/C [29]: 50.5%; viability, T/C [30]: 39%; viability, T/C [35]: 9.31%
CCN1CCN(Cc2ccc(Nc3ncc(F)c(-c4cc(F)c5nc(C)n(C(C)C)c5c4)n3)nc2)CC1 + COc1cc2nc(C)nc(NC(C)c3cc(N)cc(C(F)(F)F)c3)c2cc1OC1CCOC1 | > 1000 | > 1000 | > 1000 | 714 | 64 | 118 | 165 | 173 | 69.4 | 130 | 163 | 146 | 58 | 115 | 157 | 123 | 50.9 | 138 | 157 | 108 | viability, T/C (second compound 0.1 µM, first compound 0.00316 µM): 97.9%; viability, T/C [1]: 93.2%; viability, T/C (second compound 0.316 µM, first compound 0.00316 µM): 101%; viability, T/C [7]: 93.6%; viability, T/C (second compound 1 µM, first compound 0.00316 µM): 96%; viability, T/C [13]: 109%; viability, T/C (second compound 3.16 µM, first compound 0.00316 µM): 91.9%; viability, T/C [19]: 98.1%; viability, T/C [23]: 26.4%; viability, T/C (second compound 10 µM, first compound 0.00316 µM): 103%; viability, T/C [25]: 104%; viability, T/C [26]: 100%; viability, T/C [27]: 18.2%; viability, T/C [28]: 4.89%; viability, T/C [29]: 0.61%
CCNC(=O)CC1N=C(c2ccc(Cl)cc2)c2cc(OC)ccc2-n2c(C)nnc21 (stereo not given) + COc1cc2nc(C)nc(NC(C)c3cc(N)cc(C(F)(F)F)c3)c2cc1OC1CCOC1 | 1910 | 1310 | 1160 | 751 | 229 | 100 | 103 | 139 | 84.7 | 102 | 89.2 | 124 | 57.1 | 93.4 | 108 | 123 | 55 | 84.8 | 110 | 107 | viability, T/C [6]: 26.7%; viability, T/C [31]: 18.8%; viability, T/C [12]: 28.9%; viability, T/C [32]: 24.5%; viability, T/C [18]: 24.3%; viability, T/C [33]: 6.44%; viability, T/C [23]: 33.3%; viability, T/C [24]: 13.5%; viability, T/C [34]: 14.2%; viability, T/C [26]: 90.5%; viability, T/C [27]: 90.9%; viability, T/C [28]: 34.2%; viability, T/C [29]: 2.69%; viability, T/C [30]: 0.68%; viability, T/C [35]: 0.42%
Cn1nccc1Nc1nccc(-c2cc3c(s2)C(C)(C)N(CCN2CCOCC2)C3=O)n1 + COc1cc2nc(C)nc(NC(C)c3cc(N)cc(C(F)(F)F)c3)c2cc1OC1CCOC1 | 266 | 301 | 220 | 193 | 75.7 | 90.7 | 105 | 41.4 | 9.64 | 93.1 | 97.9 | 48 | 9 | 92.2 | 100 | 28.7 | 6.92 | 91.6 | 85.6 | 23.2 | viability, T/C [6]: 5.24%; viability, T/C [31]: 5.34%; viability, T/C [12]: 4.51%; viability, T/C [32]: 4.67%; viability, T/C [18]: 3.64%; viability, T/C [33]: 4.79%; viability, T/C [23]: 7.66%; viability, T/C [24]: 4.43%; viability, T/C [34]: 4.37%; viability, T/C [26]: 86.1%; viability, T/C [27]: 38.5%; viability, T/C [28]: 4.06%; viability, T/C [29]: 1.74%; viability, T/C [30]: 0.34%; viability, T/C [35]: 0.22%
